Test results as given in US7566727B2, “2-(1-aza-bicyclo[2.2.2]oct-3-yl)-2,3-dihydro-isoindole-1-one/5,6-dihydro-furo[2,3-c] pyrrol-4-one derivative ligands for alpha 7 nicotinic acetylcholine receptor” (priority 2004, dated 2009).

Target: α7 nAChR subtype (Rattus norvegicus, UniProt Q05941)
Test: Test A: 125I-α-Bungarotoxin binding to rat hippocampal membranes (affinity at α7 nAChR subtype)
Conditions: for Ki: [125I]α-BTX displacement, rat hippocampal membranes
Description: Test A—Assay for Affinity at α7 nAChR subtype
125I-α-Bungarotoxin (BTX) binding to rat hippocampal membranes. Rat hippocampi were homogenized in 20 volumes of cold homogenization buffer (HB: concentrations of constituents (mM): tris(hydroxymethyl)aminomethane 50; MgCl2 1; NaCl 120; KCl 5: pH 7.4). The homogenate was centrifuged for 5 minutes at 1000 g, the supernatant was saved and the pellet re-extracted. The pooled supernatants were centrifuged for 20 minutes at 12,000 g, washed, and re-suspended in HB. Membranes (30-80 μg) were incubated with 5 nM [^125I] α-BTX, 1 mg/mL BSA (bovine serum albumin), test drug, and either 2 mM CaCl2 or 0.5 mM EGTA [ethylene glycol-bis(β-aminoethylether)] for 2 hours at 21° C., and then filtered and washed 4 times over Whatman glass fibre filters (thickness C) using a Brandel cell harvester.
Binding data analysis for Tests A and B
IC50 values and pseudo Hill coefficients (nH) were calculated using the non-linear curve fitting program ALLFIT (DeLean A, Munson P J and Rodbard D (1977) Am. J. Physiol., 235:E97-E102). […] Ki values were determined using 6 or more drug concentrations.

Chain of α7 nAChR subtype (Q05941 23-502): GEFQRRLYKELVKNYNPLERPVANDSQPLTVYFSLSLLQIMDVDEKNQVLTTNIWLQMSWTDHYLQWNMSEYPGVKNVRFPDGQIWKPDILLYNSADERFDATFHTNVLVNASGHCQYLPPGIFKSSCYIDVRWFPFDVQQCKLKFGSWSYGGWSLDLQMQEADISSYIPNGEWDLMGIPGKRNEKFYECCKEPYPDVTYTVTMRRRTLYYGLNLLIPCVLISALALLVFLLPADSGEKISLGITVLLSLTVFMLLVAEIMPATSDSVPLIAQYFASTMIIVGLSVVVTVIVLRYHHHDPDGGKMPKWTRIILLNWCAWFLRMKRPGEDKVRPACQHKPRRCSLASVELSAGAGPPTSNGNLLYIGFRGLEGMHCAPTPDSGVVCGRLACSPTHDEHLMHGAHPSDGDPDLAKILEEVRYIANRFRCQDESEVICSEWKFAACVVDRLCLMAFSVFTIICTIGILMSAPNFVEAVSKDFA

Compound	Kd (read-out: KD of radioligand (saturation curve, one site model)) [nM]	Ki [nM]
125I-α-Bungarotoxin [[^125I]-α-BTX, reference compound]	1.67	–
COc1ccc(-c2ccc3c(c2)C(=O)N([C@H]2CN4CCC2CC4)C3)cc1 [Example 28, 2-(R)-1-Aza-bicyclo[2.2.2]oct-3-yl-6-(4-methoxy-phenyl)-2,3-dihydro-isoindol-1-one]	–	77
O=C1c2cc(Cl)ccc2CN1[C@H]1CN2CCC1CC2 [Example 29, 2-(R)-1-Aza-bicyclo[2.2.2]oct-3-yl-6-chloro-2,3-dihydro-isoindol-1-one]	–	289
COc1cccc(-c2ccc3c(c2)C(=O)N([C@H]2CN4CCC2CC4)C3)c1 [Example 30, 2-(R)-1-Aza-bicyclo[2.2.2]oct-3-yl-6-(3-methoxy-phenyl)-2,3-dihydro-isoindol-1-one]	–	21.8
O=C1c2cc(-c3cccc(Cl)c3)ccc2CN1[C@H]1CN2CCC1CC2 [Example 31, 2-(R)-1-Aza-bicyclo[2.2.2]oct-3-yl-6-(3-chloro-phenyl)-2,3-dihydro-isoindol-1-one]	–	45.4
O=C1c2cc(-c3ccc(Cl)cc3)ccc2CN1[C@H]1CN2CCC1CC2 [Example 32, 2-(R)-1-Aza-bicyclo[2.2.2]oct-3-yl-6-(4-chloro-phenyl)-2,3-dihydro-isoindol-1-one]	–	90
O=C1c2cc(-c3cccc4cccnc34)ccc2CN1[C@H]1CN2CCC1CC2 [Example 33, 2-(R)-1-Aza-bicyclo[2.2.2]oct-3-yl-6-quinolin-8-yl-2,3-dihydro-isoindol-1-one]	–	90
O=C1c2cc(-c3ccc4c(c3)OCO4)ccc2CN1[C@H]1CN2CCC1CC2 [Example 34, 2-(R)-1-Aza-bicyclo[2.2.2]oct-3-yl-6-benzo[1,3]dioxol-5-yl-2,3-dihydro-isoindol-1-one]	–	37
O=C1c2cc(-c3ccccc3Cl)ccc2CN1[C@H]1CN2CCC1CC2 [Example 35, 2-(R)-1-Aza-bicyclo[2.2.2]oct-3-yl-6-(2-chloro-phenyl)-2,3-dihydro-isoindol-1-one]	–	6.3
COc1ccccc1-c1ccc2c(c1)C(=O)N([C@H]1CN3CCC1CC3)C2 [Example 36, 2-(R)-1-Aza-bicyclo[2.2.2]oct-3-yl-6-(2-methoxy-phenyl)-2,3-dihydro-isoindol-1-one]	–	24
CC(=O)Nc1cccc(-c2ccc3c(c2)C(=O)N([C@H]2CN4CCC2CC4)C3)c1 [Example 37, N-[3-((R)-2-1-Aza-bicyclo[2.2.2]oct-3-yl-3-oxo-2,3-dihydro-1H-isoindol-5-yl)-phenyl]-acetamide]	–	7
CN1CCN(c2ccc3c(c2)C(=O)N([C@H]2CN4CCC2CC4)C3)CC1 [Example 38, 2-(R)-1-Aza-bicyclo[2.2.2]oct-3-yl-6-(4-methyl-piperazin-1-yl)-2,3-dihydro-isoindol-1-one]	–	424
O=C1c2cc(N3CCOCC3)ccc2CN1[C@H]1CN2CCC1CC2 [Example 39, 2-(R)-1-Aza-bicyclo[2.2.2]oct-3-yl-6-morpholin-4-yl-2,3-dihydro-isoindol-1-one]	–	421
CN(C)C(=O)c1ccc(-c2ccc3c(c2)C(=O)N([C@H]2CN4CCC2CC4)C3)cc1 [Example 40, 4-((R)-2-1-Aza-bicyclo[2.2.2]oct-3-yl-3-oxo-2,3-dihydro-1H-isoindol-5-yl)-N,N-dimethyl-benzamide]	–	353
O=C1c2cc(-c3ccc4ncccc4c3)ccc2CN1[C@H]1CN2CCC1CC2 [Example 41, 2-(R)-1-Aza-bicyclo[2.2.2]oct-3-yl-6-quinolin-6-yl-2,3-dihydro-isoindol-1-one]	–	329
O=C1c2cc(-c3cccc4ncccc34)ccc2CN1[C@H]1CN2CCC1CC2 [Example 42, 2-(R)-1-Aza-bicyclo[2.2.2]oct-3-yl-6-quinolin-5-yl-2,3-dihydro-isoindol-1-one]	–	89.6
CS(=O)(=O)c1cccc(-c2ccc3c(c2)C(=O)N([C@H]2CN4CCC2CC4)C3)c1 [Example 43, 2-(R)-1-Aza-bicyclo[2.2.2]oct-3-yl-6-(3-methanesulfonyl-phenyl)-2,3-dihydro-isoindol-1-one]	–	94
CS(=O)(=O)c1ccc(-c2ccc3c(c2)C(=O)N([C@H]2CN4CCC2CC4)C3)cc1 [Example 44, 2-(R)-1-Aza-bicyclo[2.2.2]oct-3-yl-6-(4-methanesulfonyl-phenyl)-2,3-dihydro-isoindol-1-one]	–	321
O=C1c2cc(-c3cnc4ccccc4c3)ccc2CN1[C@H]1CN2CCC1CC2 [Example 45, 2-(R)-1-Aza-bicyclo[2.2.2]oct-3-yl-6-quinolin-3-yl-2,3-dihydro-isoindol-1-one]	–	66.8

Compound	Kd (read-out: KD of radioligand (saturation curve, one site model)) [nM]	Ki [nM]
COc1ccc(-c2ccc3c(c2)C(=O)N([C@H]2CN4CCC2CC4)C3)cn1 [Example 46, 2-(R)-1-Aza-bicyclo[2.2.2]oct-3-yl-6-(6-methoxy-pyridin-3-yl)-2,3-dihydro-isoindol-1-one]	–	290
O=C1c2cc(-c3cccc4cnccc34)ccc2CN1[C@H]1CN2CCC1CC2 [Example 47, 2-(R)-1-Aza-bicyclo[2.2.2]oct-3-yl-6-isoquinolin-5-yl-2,3-dihydro-isoindol-1-one]	–	32
O=C1c2cc(-c3cncc4ccccc34)ccc2CN1[C@H]1CN2CCC1CC2 [Example 48, 2-(R)-1-Aza-bicyclo[2.2.2]oct-3-yl-6-isoquinolin-4-yl-2,3-dihydro-isoindol-1-one]	–	112
CC(=O)Nc1ccc(-c2ccc3c(c2)C(=O)N([C@H]2CN4CCC2CC4)C3)cc1 [Example 49, N-[4-((R)-2-1-Aza-bicyclo[2.2.2]oct-3-yl-3-oxo-2,3-dihydro-1H-isoindol-5-yl)-phenyl]-acetamide]	–	3.2
Cn1cc(-c2ccc3c(c2)C(=O)N([C@H]2CN4CCC2CC4)C3)cn1 [Example 50, 2-(R)-1-Aza-bicyclo[2.2.2]oct-3-yl-6-(1-methyl-1H-pyrazol-4-yl)-2,3-dihydro-isoindol-1-one]	–	61
O=C1c2cc(-c3cnn(Cc4ccccc4)c3)ccc2CN1[C@H]1CN2CCC1CC2 [Example 51, 2-(R)-1-Aza-bicyclo[2.2.2]oct-3-yl-6-(1-benzyl-1H-pyrazol-4-yl)-2,3-dihydro-isoindol-1-one]	–	146
CN(C)C(=O)c1cccc(-c2ccc3c(c2)C(=O)N([C@H]2CN4CCC2CC4)C3)c1 [Example 52, 3-((R)-2-1-Aza-bicyclo[2.2.2]oct-3-yl-3-oxo-2,3-dihydro-1H-isoindol-5-yl)-N,N-dimethyl-benzamide]	–	31
CCNC(=O)c1ccc(-c2ccc3c(c2)C(=O)N([C@H]2CN4CCC2CC4)C3)cc1 [Example 53, 4-((R)-2-1-Aza-bicyclo[2.2.2]oct-3-yl-3-oxo-2,3-dihydro-1H-isoindol-5-yl)-N-ethyl-benzamide]	–	348
COc1cc(OC)cc(-c2ccc3c(c2)C(=O)N([C@H]2CN4CCC2CC4)C3)c1 [Example 54, 2-(R)-1-Aza-bicyclo[2.2.2]oct-3-yl-6-(3,5-dimethoxy-phenyl)-2,3-dihydro-isoindol-1-one]	–	669
NC(=O)c1cccc(-c2ccc3c(c2)C(=O)N([C@H]2CN4CCC2CC4)C3)c1 [Example 55, 3-((R)-2-1-Aza-bicyclo[2.2.2]oct-3-yl-3-oxo-2,3-dihydro-1H-isoindol-5-yl)-benzamide]	–	17
O=C(NCc1ccccc1)c1ccc(-c2ccc3c(c2)C(=O)N([C@H]2CN4CCC2CC4)C3)cc1 [Example 56, 4-((R)-2-1-Aza-bicyclo[2.2.2]oct-3-yl-3-oxo-2,3-dihydro-1H-isoindol-5-yl)-N-benzyl-benzamide]	–	100
Nc1cccc(-c2ccc3c(c2)C(=O)N([C@H]2CN4CCC2CC4)C3)c1 [Example 57, 6-(3-Amino-phenyl)-2-(R)-1-aza-bicyclo[2.2.2]oct-3-yl-2,3-dihydro-isoindol-1-one]	–	6.4
CCC(=O)Nc1cccc(-c2ccc3c(c2)C(=O)N([C@H]2CN4CCC2CC4)C3)c1 [Example 58, N-[3-((R)-2-1-Aza-bicyclo[2.2.2]oct-3-yl-3-oxo-2,3-dihydro-1H-isoindol-5-yl)-phenyl]-propionamide]	–	1.7
COc1cncc(-c2ccc3c(c2)C(=O)N([C@H]2CN4CCC2CC4)C3)c1 [Example 59, 2-(R)-1-Aza-bicyclo[2.2.2]oct-3-yl-6-(5-methoxy-pyridin-3-yl)-2,3-dihydro-isoindol-1-one]	–	383
O=C1c2cc(-c3ccc4c(c3)OCCO4)ccc2CN1[C@H]1CN2CCC1CC2 [Example 60, 2-(R)-1-Aza-bicyclo[2.2.2]oct-3-yl-6-(2,3-dihydro-benzo[1,4]dioxin-6-yl)-2,3-dihydro-isoindol-1-one]	–	28
CC(C)Oc1cccc(-c2ccc3c(c2)C(=O)N([C@H]2CN4CCC2CC4)C3)c1 [Example 61, 2-(R)-1-Aza-bicyclo[2.2.2]oct-3-yl-6-(3-isopropoxy-phenyl)-2,3-dihydro-isoindol-1-one]	–	14
O=C1c2cc(-c3cccc(OC(F)(F)F)c3)ccc2CN1[C@H]1CN2CCC1CC2 [Example 62, 2-(R)-1-Aza-bicyclo[2.2.2]oct-3-yl-6-(3-trifluoromethoxy-phenyl)-2,3-dihydro-isoindol-1-one]	–	48
O=C(Nc1cccc(-c2ccc3c(c2)C(=O)N([C@H]2CN4CCC2CC4)C3)c1)c1ccccc1 [Example 64, N-[3-((R)-2-1-Aza-bicyclo[2.2.2]oct-3-yl-3-oxo-2,3-dihydro-1H-isoindol-5-yl)-phenyl]-benzamide]	–	3.9
